Data as given in patent US20240287138A1, “CYCLIC PEPTIDES FOR INHIBITING TNF RECEPTOR 1 ACTIVITY” (Merck Sharp & Dohme LLC, priority 2023, published 2024).
pKd: −log10 of the molar value. Numbered stars: 1 amine (or outer) side, 2 acyl side, 3 side chain; on linkers, the order of the positions; unused ones are H or OH. Square brackets hold non-standard residues; d marks the D form. Peptide text beside a SMILES is read from it. * marks the point of attachment. Trp(βS-Me,7-OMe) = COc1cccc2c([C@H](C)[C@H](N)C(=O)O)c[nH]c12; dPro(trans-4-NMe3+) = C[N+](C)(C)[C@@H]1CN[C@@H](C(=O)O)C1; Trp(1-CH2COOH) = N[C@@H](Cc1cn(CC(=O)O)c2ccccc12)C(=O)O; Phe(4-SO2NH2) = N[C@@H](Cc1ccc(S(N)(=O)=O)cc1)C(=O)O; Trp(7-CN) = N#Cc1cccc2c(C[C@H](N)C(=O)O)c[nH]c12; X27 = O=C(O)c1ccc(C[C@H](N[*:1])C(=O)[*:2])cc1F; Phe(3-CONH2) = NC(=O)c1cccc(C[C@H](N)C(=O)O)c1; Phe(4-CONH2) = NC(=O)c1ccc(C[C@H](N)C(=O)O)cc1; Phe(4-COOH) = N[C@@H](Cc1ccc(C(=O)O)cc1)C(=O)O; Trp(7-aza) = N[C@@H](Cc1c[nH]c2ncccc12)C(=O)O; Pip(5R-OH) = O=C(O)[C@@H]1CC[C@@H](O)CN1; X1 = O=C([C@@H]1CC[C@H](N[*:1])C1)[*:2]; Gly(Nα-CH2CH2CONH2) = NC(=O)CCNCC(=O)O; Pip(4-aza) = O=C(O)[C@@H]1CNCCN1; 4Pal = N[C@@H](Cc1ccncc1)C(=O)O; dHyp = O=C(O)[C@H]1C[C@H](O)CN1; Ahp(2) = CCCCC[C@H](N)C(=O)O; αMeS = C[C@](N)(CO)C(=O)O; Carboxymethyl = O=C(O)C*; Nle = CCCC[C@H](N)C(=O)O; Sar = CNCC(=O)O

Legend:
human TNFR2 ECD protein = biological target: T1, human TNFR2 ECD protein (Homo sapiens, UniProt P20333); assay: SPR off-target binding (selectivity) to human TNFR2 ECD
T1 construct: HRV 3C protease cleavage site (C); 6His (C, cleaved yes); made in house; host or cells: Sf21 insect cells (baculovirus), secreted
T1 sequence (P20333 23-257): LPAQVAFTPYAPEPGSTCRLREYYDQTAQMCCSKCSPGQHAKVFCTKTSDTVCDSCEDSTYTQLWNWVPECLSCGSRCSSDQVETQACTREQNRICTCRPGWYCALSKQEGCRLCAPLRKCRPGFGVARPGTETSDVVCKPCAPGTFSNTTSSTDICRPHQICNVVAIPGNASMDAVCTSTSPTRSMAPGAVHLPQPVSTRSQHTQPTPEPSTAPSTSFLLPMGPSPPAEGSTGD
How it was run: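 Biotinylated avi-tagged human TNFR1 or TNFR2 ECD, expressed in Sf21 insect cells, captured on streptavidin SPR chip; peptide analytes run in 10 mM HEPES pH 7.4, 150 mM NaCl, 3 mM EDTA, 0.05% P20, 2% DMSO. kon and koff measured, affinity KA calculated.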

[1] = biological target: T2, human soluble TNFR1 (sTNFR1) (Homo sapiens, UniProt P19438); assay: Human sTNFR1-peptide displacement assay (LanthaScreen Eu TR-FRET binding assay)
T2 construct: made in house; host or cells: Sf21 (baculovirus)
T2 sequence (P19438 with tags, fused parts or gaps): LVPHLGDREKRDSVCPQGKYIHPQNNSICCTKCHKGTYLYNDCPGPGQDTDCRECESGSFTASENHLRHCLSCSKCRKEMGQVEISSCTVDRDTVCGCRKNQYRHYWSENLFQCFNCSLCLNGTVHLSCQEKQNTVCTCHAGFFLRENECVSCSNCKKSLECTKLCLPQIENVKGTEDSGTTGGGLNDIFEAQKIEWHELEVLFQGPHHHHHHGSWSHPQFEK
How it was run: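 Readout is the 665/615 nm TR-FRET ratio (Eu anti-His donor, streptavidin-Alexa647 acceptor), normalized to DMSO and saturating displacer, fit by Morrison-based five-parameter logistic for Kd^app. His-tagged sTNFR1 (1-211) prebound to 100 nM biotinylated peptide SEQ ID NO.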

CCCC[C@@H]1NC(=O)[C@@H]2CC[C@@H](C2)NC(=O)[C@H]([C@@H](C)c2c[nH]c3c(OC)cccc23)NC(=O)CN(C)C(=O)[C@H](Cc2ccc(C(=O)O)cc2)NC(=O)[C@H](Cc2ccc(S(N)(=O)=O)cc2)NC(=O)[C@](C)(CO)NC(=O)[C@H](Cc2c[nH]c3c(C#N)cccc23)NC(=O)[C@H](Cc2ccc(C(=O)O)cc2)NC(=O)[C@H](CC(N)=O)NC(=O)[C@H]2C[C@H](OCC(=O)O)CN2C(=O)[C@H](Cc2c[nH]c3ncccc23)NC(=O)[C@@H]2CC[C@@H](O)CN2C(=O)[C@H](Cc2ccncc2)NC1=O [SEQ ID NO. 4] (cyclo([4Pal][Pip(5R-OH)][Trp(7-aza)][dHyp](Carboxymethyl)N[Phe(4-COOH)][Trp(7-CN)][αMeS][Phe(4-SO2NH2)][Phe(4-COOH)][Sar][Trp(βS-Me,7-OMe)][X1][Nle]))
pKd (human TNFR2 ECD protein): < 6.00 | pKd [1]: 10.05

CCCC[C@@H]1NC(=O)[C@@H]2CC[C@@H](C2)NC(=O)[C@H]([C@@H](C)c2c[nH]c3c(OC)cccc23)NC(=O)CN(C)C(=O)[C@H](Cc2ccc(C(=O)O)cc2)NC(=O)[C@H](Cc2ccc(C(N)=O)cc2)NC(=O)[C@](C)(CO)NC(=O)[C@H](Cc2c[nH]c3c(C#N)cccc23)NC(=O)[C@H](Cc2ccc(C(=O)O)c(F)c2)NC(=O)[C@H](CC(N)=O)NC(=O)[C@H]2C[C@H](O)CN2C(=O)[C@H](Cc2c[nH]c3ncccc23)NC(=O)[C@@H]2CC[C@@H](O)CN2C(=O)[C@H](Cc2ccncc2)NC1=O [SEQ ID NO. 8] (cyclo([4Pal][Pip(5R-OH)][Trp(7-aza)][dHyp]N[X27][Trp(7-CN)][αMeS][Phe(4-CONH2)][Phe(4-COOH)][Sar][Trp(βS-Me,7-OMe)][X1][Nle]))
pKd (human TNFR2 ECD protein): < 6.00 | pKd [1]: 10.00

CCCC[C@@H]1NC(=O)[C@@H]2CC[C@@H](C2)NC(=O)[C@H]([C@@H](C)c2c[nH]c3c(OC)cccc23)NC(=O)CN(C)C(=O)[C@H](Cc2ccc(C(N)=O)cc2)NC(=O)[C@H](Cc2ccc(S(N)(=O)=O)cc2)NC(=O)[C@](C)(CO)NC(=O)[C@H](Cc2c[nH]c3c(C#N)cccc23)NC(=O)[C@H](Cc2ccc(C(=O)O)cc2)NC(=O)[C@H](CC(N)=O)NC(=O)[C@H]2C[C@H]([N+](C)(C)C)CN2C(=O)[C@H](Cc2cn(CC(=O)O)c3ccccc23)NC(=O)[C@@H]2CC[C@@H](O)CN2C(=O)[C@H](Cc2ccncc2)NC1=O [SEQ ID NO. 9] (cyclo([4Pal][Pip(5R-OH)][Trp(1-CH2COOH)][dPro(trans-4-NMe3+)]N[Phe(4-COOH)][Trp(7-CN)][αMeS][Phe(4-SO2NH2)][Phe(4-CONH2)][Sar][Trp(βS-Me,7-OMe)][X1][Nle]))
pKd (human TNFR2 ECD protein): < 6.00 | pKd [1]: 10.30

CCCCC[C@@H]1NC(=O)[C@@H]2CC[C@@H](C2)NC(=O)[C@H]([C@@H](C)c2c[nH]c3c(OC)cccc23)NC(=O)CN(C)C(=O)[C@H](Cc2cccc(C(N)=O)c2)NC(=O)[C@H](Cc2ccc(C(N)=O)cc2)NC(=O)[C@](C)(CO)NC(=O)[C@H](Cc2c[nH]c3c(C#N)cccc23)NC(=O)[C@H](Cc2ccc(C(=O)O)cc2)NC(=O)[C@H](CC(N)=O)NC(=O)CN(CCC(N)=O)C(=O)[C@H](Cc2c[nH]c3ccccc23)NC(=O)[C@@H]2CNCCN2C(=O)[C@H](Cc2ccncc2)NC1=O [SEQ ID NO. 10] (cyclo([4Pal][Pip(4-aza)]W[Gly(Nα-CH2CH2CONH2)]N[Phe(4-COOH)][Trp(7-CN)][αMeS][Phe(4-CONH2)][Phe(3-CONH2)][Sar][Trp(βS-Me,7-OMe)][X1][Ahp(2)]))
pKd (human TNFR2 ECD protein): < 6.00 | pKd [1]: 10.00

CCCC[C@@H]1NC(=O)[C@@H]2CC[C@@H](C2)NC(=O)[C@H]([C@@H](C)c2c[nH]c3c(OC)cccc23)NC(=O)CN(C)C(=O)[C@H](Cc2ccc(C(N)=O)cc2)NC(=O)[C@H](Cc2ccc(C(N)=O)cc2)NC(=O)[C@](C)(CO)NC(=O)[C@H](Cc2c[nH]c3c(C#N)cccc23)NC(=O)[C@H](Cc2ccc(C(=O)O)cc2)NC(=O)[C@H](CC(N)=O)NC(=O)[C@H]2C[C@H](OC)CN2C(=O)[C@H](Cc2c[nH]c3ccccc23)NC(=O)[C@@H]2CC[C@@H](O)CN2C(=O)[C@H](Cc2ccncc2)NC1=O [SEQ ID NO. 14] (cyclo([4Pal][Pip(5R-OH)]W[dHyp](Me)N[Phe(4-COOH)][Trp(7-CN)][αMeS][Phe(4-CONH2)][Phe(4-CONH2)][Sar][Trp(βS-Me,7-OMe)][X1][Nle]))
pKd (human TNFR2 ECD protein): < 6.00 | pKd [1]: 10.52
